{
  "source": "paper PMC10470313",
  "about": "“Developing a peptide to disrupt cohesin head domain interactions” (iScience, 2023)",
  "molecules": {"B1": {"name": "Smc3 head domain (domain or fragment, S. cerevisiae)", "chain": "YIKRVIIKGFKTYRNETIIDNFSPHQNVIIGSNGSGKSNFFAAIRFVLSDDYSNLKREERQGLIHQGSGGSVMSASVEIVFHDPDHSMILPSGVLSRGDDEVTIRRTVGLKKDDYQLNDRNVTKGDIVRMLETAGFSMNNPYNIVPQGKIVALTNAKDKERLQLLEDVVGAKSFEVKLKASLKKMEETEQKKIQINKEMGELNESSKHPTSLVPRGNFKKFNERRKDLAERASELDESKDSIQDLIVKLKQQKVNAVDSTFQKVSENFEAVFERLVPRGTAKLIIHRKNDNANDHDESIDVDMDAESNESQNGKDSEIMYTGVSISVSFNSKQNEQLHVEQLSGGQKTVCAIALILAIQMVDPASFYLFDEIDAALDKQYRTAVATLLKELSKNAQFICTTFRTDMLQVADKFFRVKYENKISTVIEVNREEAIGFIRGSNKFAEV", "notes": "Smc3, S. cerevisiae, N-terminal part of the head domain, amino acids 2-204; 13 amino acids linker in place of the coiled coil and hinge; Smc3, S. cerevisiae, C-terminal part of the head domain, amino acids 1001-1230; also called Smc3hd; source: E. coli BL21, purified (Ni-NTA, twice)"}},
  "key": {"[1]": {"test_system": "yIO-001 strain yeast cells", "experiment": "Peptide entry into yeast cells (epifluorescence microscopy)", "format": "cell-based", "details": "10 mM peptide, 1 h, 30°C, mid-log phase, FITC epifluorescence", "procedure": "The formation of Smc3/CIP3 complexes supports our preliminary conclusion that CIP3 inhibits cohesin activity in cells. Aiming to improve the stability of the peptide in cells, we switched to using an in vitro synthesized peptide. This approach has been successfully used to inhibit protein-protein interactions in both yeast and mammalian cells.[26]^,[38]^,[39]^,[40]^,[41] […] We validated peptide entry into yeast by incubating a 26-amino acid control peptide (ContP), which was fused to the TAT, and a fluorescein isothiocyanate (FITC) fluorophore. Thereafter, 10 mM of the ContP was added to yIO-001 strain cells grown to mid-log phase at 30°C. The cells were incubated with the peptide for 1 h and analyzed by epifluorescence microscopy.\nSupplementary Figure S3. Binding of CIP3-TAT to cohesin by microscale thermophoresis, Related to Figure 3. 10 µM CIP3-TAT was added to protein extracts from strain yAM-945 (Smc3-GFP). The formation of the CIP3-TAT and cohesin complex was analyzed by MST in binding mode. A. MST trace. B. Binding analysis.\nSupplementary Figure S4. […]\n3. […] The purified proteins were analyzed on gel, followed by coomassie staining. […]\nSupplementary Figure S5. […] The entry of the peptide into the cells was analyzed by epifluorescence microscopy.\nSupplementary Figure S6. […] The cell cycle stage of the cells, described in Fig. 4B, was determined by flow cytometry. […]"}, "[2]": {"test_system": "yeast cells (pGAL-CIP strains)", "experiment": "Yeast growth rate with galactose-induced peptide expression (OD600)", "format": "cell-based, Saccharomyces cerevisiae", "details": "OD 600 nm every 120 min; for growth of cells overexpressing the peptide: SC-URA galactose medium, compared with control plasmid; for growth rate vs control, multiple linear regression coefficient B: logarithmic phase, galactose medium, representative experiment, vs control strain yIO1000", "description": "We designed three cohesin-inhibiting peptides (CIPs, Table 1) to inhibit Smc1/Smc3 protein-protein interaction. CIP1 and CIP2 were derived from conserved regions in Smc3, while CIP3 was derived from a conserved region in Smc1 (Figure 1E). To explore the biological effect of the peptides on cohesin, we sought to overexpress them in cells. For that purpose, we constructed a centromeric plasmid—pME4 (CIP1), pME2 (CIP2), and pME3 (CIP3), in which the peptide coding sequence was inserted after an ATG codon and under the control of a GAL promoter. Cells were transformed with the plasmids and grown in an SC-URA medium. In addition, we transformed cells with a control plasmid (pIO014).\n(§1) Strains yIO1000 (control) and yME-031 (pGAL-CIP1), yME-016 (pGAL-CIP2), and yME-019 (pGAL-CIP3) cells were diluted in SC-URA galactose medium, and their growth rate was measured by optical density at 600 nm every 120 min. Cohesin is essential for cell division, so we expected that inhibition of cohesin activity by expressing a CIP would affect the cell growth rate.\nFigure 2 CIP3 causes cell growth delay Strains yIO1000 (control) and yME-031 (pGAL-CIP1), yME-016 (pGAL-CIP2), and yME-019 (pGAL-CIP3) cells were grown in a galactose-containing medium to induce peptide expression. Cell growth was monitored every 120 min to measure the optical density of the culture at 600 nm. The growth rate in the logarithmic growth phase was calculated. The results of a representative experiment are shown."}, "cohesin in yeast cells": {"test_system": "cohesin in yeast cells", "experiment": "Preliminary analysis of biological effect", "format": "cell-based", "procedure": "as §1\nThe CIP3 sequence is derived from the C-terminal region of Smc1. The 15 amino acid sequence is conserved, encoding part of a short loop and the beginning of an alpha helix located at the bottom of the head domain (Figures 1A–1C). […] We used the HPepDock 2.0 server[32]^,[33]^,[34]^,[35] to predict the docking site of CIP3 on Smc3. The coordinates of the Smc3 structure (PDB: 4ux3)[36] were entered as the receptor input and CIP3 as the sequence as the peptide input and the analysis was done using the default parameter. […] CIP3 may interfere with ATP binding to the Walker A site in Smc3. Alternatively, it may misplace the hydrolysis motif in Smc1 and inhibit that ATPase activity. It is important to note that dynamics models are required to understand the structural basis of the Smc3-CIP3 complex fully, as well as experimental validation of the model."}, "cohesin holocomplex": {"test_system": "cohesin holocomplex", "experiment": "ATPase assay of cohesin holocomplex (free Pi)", "format": "biochemical, S. cerevisiae", "details": "10 nM cohesin, 20 nM loader, dsDNA, 0.25 mM ATP, 20 mM TAT-CIP3 as printed, 30°C, absorbance 650 nm", "procedure": "The formation of the Smc3-CIP3 complex likely affects the ATPase activity. To explore this possibility, we expressed and purified S. cerevisiae cohesin holocomplex and the loader from yeast cells[37] (Figure S4. Purification of cohesin holocomplex and loader, related to Figure 3), and we measured the ATPase rate of cohesin in the presence of cohesin, the loader DNA, and ATP, as previously described.[37] Cohesin was preincubated without or with CIP3, and the accumulation of free Pi was measured over 30 min. In the absence of CIP3, Pi accumulation was constant over time, indicating continuous ATP hydrolysis.\nCohesin and the Scc2-Scc4 loader were expressed in S. cerevisiae as described in[37] with the following modifications: Cells were resuspended in buffer A (50 mM Hepes-NaOH pH 7.5, 300 mM NaCl, 2 mM MgCl2, 20% (vol/vol) glycerol, 0.5 mM Tris(2-carboxyethyl)phosphine hydrochloride (TCEP), 0.5 mM Pefabloc (Sigma-Aldrich), and a protease inhibitor cocktail (Sigma-Aldrich) and lysed by seven continuous passes in EmulsiFlexby-C3 (Avastin) at 4°C. The lysate was clarified, and purifications were continuous, as described in.[37]\nATPase assay has been done with the piColorLock kit (Expedeon) according to the manufacturer manual. […] The reaction was incubated at 30°C for 20 minutes and the amount of free was measured for 30 min minutes by absorbance in 650 nm every 5 min […]."}, "yeast cells": {"test_system": "yeast cells", "experiment": "Yeast growth with CIP3 expressed from T2A ribosome-skipping vector", "format": "cell-based, Saccharomyces cerevisiae", "details": "CIP3 followed by GFP in T2A vector, GAL promoter", "description": "The weak effect of CIP3 expressed in cells may relate to several reasons, including low expression levels, low translation efficiency, or cellular instability of short mRNAs and peptides. We tried to increase cellular mRNA stability by using a plasmid containing the T2A ribosome-skipping sequence under GAL promoter control.[29]^,[30]^,[31] Two genes cloned in tandem and separated by a T2A linker were expressed as a single mRNA. The ribosome skips the T2A sequence during translation, resulting in two separate proteins (Figure S1A. Peptide expression from a plasmid containing T2A ribosome-skipping sequence, related to Figure 2). To test the system, we cloned green fluorescent protein (GFP) and mCherry in tandem, separated by the T2A sequence. Cells carrying the plasmids were grown in SC-URA with either noninducing raffinose or inducing galactose. […] Both GFP and mCherry proteins were detected by western blot analysis of extracts from these cells (Figure S1C. Peptide expression from a plasmid containing T2A ribosome-skipping sequence, related to Figure 2). […]"}, "CIP3-TAT [3]": {"target": "T1, CIP3-TAT (S. cerevisiae | HIV)", "T1 construct": "Smc1, S. cerevisiae, residues 1121-1135 (conserved region of the head domain); linker between the Smc1 stretch and the TAT stretch; 11-amino acid peptide from the HIV TAT protein, added for delivery into cells; The methods of the biosensing experiment call the immobilised peptide CIP3; also called TAT-CIP3; source: synthetic peptide (Fmoc solid-phase synthesis, purified by preparative RP-HPLC)", "T1 peptide": "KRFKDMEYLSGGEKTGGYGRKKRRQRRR", "experiment": "field-effect biosensing (FEB Agile R100); 500 nM peptide immobilised on a graphene sensor chip; purified Smc3 head domain as analyte in rising concentrations; PBS baseline; without ATP; Kd by Hill fit or from kon and koff at a single concentration", "details": "both partners purified"}, "CIP3-TAT [4]": {"target": "T1, CIP3-TAT", "experiment": "field-effect biosensing (FEB Agile R100); 500 nM peptide immobilised on a graphene sensor chip; purified Smc3 head domain as analyte, incubated with ATP (10 mM) before the measurement", "details": "both partners purified"}},
  "note": "Several values for one entry are separate records, joined by “and”; a condition that tells them apart may be missing. Equal entries are not always repeated. Entries after “also recorded” stand apart in the source; their conditions may differ.",
  "data": [
    {"molecule": "FITC-SGYGRKKRRQRRR-GGGLNPYWMETFT [ContP, 26-amino acid control peptide fused to the TAT and a fluorescein isothiocyanate (FITC) fluorophore]", "values": [
      {"measurement": "peptide entry into yeast cells", "setting": "[1]", "result": "emission from cells incubated with the ContP peptide"}
    ]},
    {"molecule": "MIIGSNGSGKSN [CIP2, expressed from pME2]", "values": [
      {"measurement": "growth of cells overexpressing the peptide", "setting": "[2]", "result": "no significant decrease in growth rate"},
      {"measurement": "growth rate vs control, multiple linear regression coefficient B", "setting": "[2]", "result": "−0.290"},
      {"measurement": "biological effect, preliminary analysis", "setting": "cohesin in yeast cells", "result": "do not have a detectable biological effect"}
    ]},
    {"molecule": "MKRFKDMEYLSGGEKT [CIP3, expressed from pME3]", "values": [
      {"measurement": "Pi accumulation (ATPase activity) after 5 min", "setting": "cohesin holocomplex", "result": "Pi accumulation dropped sharply, indicating that ATPase activity was inhibited"},
      {"measurement": "growth inhibition compared to previous (non-T2A) experiment", "setting": "yeast cells", "result": "the inhibition fold was not improved"},
      {"measurement": "growth of cells overexpressing the peptide", "setting": "[2]", "result": "weak growth delay; also recorded: significant decrease in growth rate"},
      {"measurement": "growth rate vs control, multiple linear regression coefficient B", "setting": "[2]", "result": "−0.727"}
    ]},
    {"molecule": "MKQNEQLHVEQLSGGQKTV [CIP1, expressed from pME4]", "values": [
      {"measurement": "growth of cells overexpressing the peptide", "setting": "[2]", "result": "no significant decrease in growth rate"},
      {"measurement": "growth rate vs control, multiple linear regression coefficient B", "setting": "[2]", "result": 0.015},
      {"measurement": "biological effect, preliminary analysis", "setting": "cohesin in yeast cells", "result": "do not have a detectable biological effect"}
    ]},
    {"molecule": "B1", "values": [
      {"measurement": "Kd", "setting": "CIP3-TAT [3]", "result": "53.9 nM and 56 nM"},
      {"measurement": "Kd", "setting": "CIP3-TAT [4]", "result": "544.2 ± 0.06", "unit": "nM"}
    ]}
  ]
}
